Results: patent publication US20220218715A1, “NOVEL USE OF PYRROLO-PYRIDINE DERIVATIVE COMPOUND FOR PREVENTION AND/OR TREATMENT OF CANCER” (VORONOI CO., LTD., priority 2019, published 2022)

Columns and labels:
PC-9 lung cancer cells = experiment: Anticancer effect in mouse model with PC-9 lung cancer cells; assay type: in vivo, Balb/c Nude Mice; details: PC-9 model; singular treatment with EGFR targeting drug, PO QD (Gefitinib 10 mg/kg, Osimertinib 3 mg/kg)
Procedure: (§1) The PC-9 cell line was purchased from NanJing Cobioer Biological Technology Co., Ltd. Cells were kept in RPMI-1640 containing 10% FBS, and cultured in a 37° C. humidified cell culture incubator at 5% C2. All animal experiments were carried out according to the Animal Use and Management Guidelines of Shanghai Medicilon Inc. Under sterile conditions, 2×10^6 PC-9 tumor cells (0.1 mL, cell:Matrigel®=1:1) was administered to the right waist of each animal by S.C. administration. Tumor size and animal body weight were measured twice weekly, and clinical symptoms were recorded daily. The mice will be administered individually according to most recent body weight. The tumors were measured using calipers using two measurements, length (a) and width (b). The volume of the tumors was calculated individually as follows, from the two measured diameters of the tumors: tumor volume (mm^3)=(a×b^2)/2.

[1] = tested on: NCI-H1975 lung cancer cells; experiment: Anticancer effect in mouse model with NCI-H1975 lung cancer cells; assay type: in vivo, Balb/c Nude Mice; details: singular treatment with Osimertinib 3.5 mg/kg PO QD
Procedure: as §1, with “NCI-H1975” for “PC-9”, “the Institute of Biochemistry and Cell Biology (Shanghai Institutes for” for “NanJing Cobioer”, “Sciences, CAS).” for “Technology Co., Ltd.”, “CO2.” for “C2.”, “Under sterile conditions, 2×10^6 PC-9 tumor cells (0.1 mL, cell:Matrigel®=1:1) was administered to the right waist of each animal by S.C. administration.” left out

Structure (SMILES) | cancer cell regrowth during treatment (PC-9 lung cancer cells) | cancer cell regrowth during treatment [1]
COc1cc2ncnc(Nc3ccc(F)c(Cl)c3)c2cc1OCCCN1CCOCC1 [Gefitinib, reference compound] | early regrowth of cancer cells was observed | 
C=CC(=O)Nc1cc(Nc2nccc(-c3cn(C)c4ccccc34)n2)c(OC)cc1N(C)CCN(C)C [Osimertinib, reference compound] | early regrowth of cancer cells was observed | early regrowth of cancer cells was observed
